PubChem BioAssay (NCI)
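Test compounds were applied to cells in 96-well plates for 48 hours at 5 doses. GI50 marks 50% less growth. The concentration for full growth arrest is given as TGI.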 Where a SMILES comes first, the peptide text is derived from it. The star is where a group is joined. Bn = c1ccc(C*)cc1

Tests used:
Test in all cases: NCI-60 cell line screen, 48 h
[1] = tested on: NCI-H226 lung
[2] = tested on: TK-10 renal
[3] = tested on: HCT-15 colon
[4] = tested on: KM12 colon
[5] = tested on: T-47D breast
[6] = tested on: RPMI-8226 leukemia
[7] = tested on: BT-549 breast
[8] = tested on: SF-295 CNS
[9] = tested on: UACC-257 melanoma
[10] = tested on: RXF 393 renal

Compound	TGI [1] [µM]	TGI [2] [µM]	TGI [3] [µM]	TGI [4] [µM]	TGI [5] [µM]	TGI [6] [µM]	TGI [7] [µM]	TGI [8] [µM]	TGI [9] [µM]	TGI [10] [µM]	GI50 [2] [µM]	GI50 [5] [µM]	GI50 [7] [µM]	GI50 [1] [µM]	GI50 [3] [µM]	GI50 [4] [µM]	GI50 [6] [µM]	GI50 [8] [µM]	GI50 [9] [µM]	GI50 [10] [µM]
OCC(O)C(O)C(O)/C=N/Nc1nc(O)c(/C=C2\C=Nc3ccccc32)[nH]1 (stereo not drawn)	> 100	> 100	> 100	> 100	> 100	> 100	> 100	> 100	> 100	> 100										
COC(=O)C1OC(O[C@H]2CC[C@]3(C)[C@H]4CC=C5[C@@H]6CC(C)(C)CC[C@]6(C(=O)OC6OCC(O)C(O)C6OC6OC(C)C(OC7OCC(OC8OCC(O)C(O)C8O)C(O)C7O)C(O)C6O)[C@H](O)C[C@@]5(C)[C@]4(C)CC[C@H]3C2(C)C)C(O)C(O)C1O (stereo partly drawn)	6.23	22.5	22.7	14.2	13.2	> 50.7	4.4	8.66	13.1	25.8										
Cc1c(C#N)c(N)n(C2OCC(O)C(O)C2O)c(=S)c1C#N (stereo not drawn)	> 100	> 100	> 100	> 100	> 100	> 100	> 100	> 100	> 100	> 100										
Cc1cc2nc(-c3cc(C(C)(C)C)c(O)c(C(C)(C)C)c3)[nH]c2cc1C	> 100	> 100	> 100	> 28.8	> 100	> 100	> 100	> 100	> 100	> 100										
CC(C)(C)c1ccc(OCC(=O)O)c(Cl)c1	> 100	> 100	> 100	> 100	> 100	> 100	> 100	> 100	> 100	> 100										
S=C1CC(c2ccccc2)Sc2ccc(Cl)cc2N1 (stereo not drawn)	> 100	> 100	> 100	> 100	> 100	> 100	> 100	92.6	> 100	25.7										
COC(=O)[C@H](C)NC(=O)[C@H](CSC)N1C(=O)N[C@@H](C(C)C)C1=O	> 100	> 100	> 100	> 100	> 100	> 100	> 100	> 100	> 100	> 100										
COC(=O)c1cc(C)ccc1CC(Cc1ccc(C)cc1)C(=O)OC (stereo not drawn)	> 100	> 100	> 77.9	> 100	> 100	> 100	> 100	> 100	> 100	11.5										
COC(=O)C(CC(C)C)NC(=O)C(N)Cc1ccc(OCc2ccccc2)cc1 (stereo not drawn) (H-Tyr(Bn)-Leu-OMe; configuration not given here)	> 10	> 10	> 10	> 10	> 10	> 10	> 10	> 10	> 10	> 10										
COc1ccc(N=Nc2c3c(c(O)c4ccccc24)CCC(C)(C)O3)cc1	> 100	65.8	28.9	29.5	25.2	98.1	34.6	30.3	37.5	34										
Cc1c2ccncc2c(C)c2c1[nH]c1ccccc12	5.46	2.6	2.73	2.36	0.509	3.11	3.34	2	4.64	0.595	0.79	0.173	1.56							
COc1c(O)c(O)cc2c1-c1ccc(OC)c(=O)cc1C(NC(C)=O)CC2 (stereo not drawn)	70.2	> 100	> 100	33	> 100	54.9	14.9	20.5	76.9	> 41.2										
CCOC(=O)C1CN(C2CC2)CCC1=O (stereo not drawn)	> 100	> 100	> 100	> 100	> 100	> 100	> 100	> 100	> 100	> 100										
COC(=O)[C@H](Cc1ccccc1)NC(=O)c1ccc(CNC(=O)/C=C/c2cccc(Oc3ccccc3)c2)cc1	> 100	92.5	> 100	> 100	> 100	> 100	> 100	> 100	21.8	24.2										
COc1ccc(N=NC(=Nc2ccc(F)cc2)c2ccc(N(CCC#N)CCC#N)cc2)cc1	> 100	> 100	> 100	44.9	> 100	> 100	70.8	> 100	70.4	90										
N#CCCN(CCC#N)c1ccc(/C=C2\SC(=S)NC2=O)cc1Br	> 100	> 100	> 100	> 100	> 100	> 100	> 100	> 100	> 100	> 100										
c1ccc(-c2cnc(-c3ccc(-c4ncc(-c5ccccc5)o4)cc3)o2)cc1	> 100	> 100	> 100	> 100	> 100	> 100	> 100	> 100	> 100	> 100										

Compound	TGI [1] [µM]	TGI [2] [µM]	TGI [3] [µM]	TGI [4] [µM]	TGI [5] [µM]	TGI [6] [µM]	TGI [7] [µM]	TGI [8] [µM]	TGI [9] [µM]	TGI [10] [µM]	GI50 [2] [µM]	GI50 [5] [µM]	GI50 [7] [µM]	GI50 [1] [µM]	GI50 [3] [µM]	GI50 [4] [µM]	GI50 [6] [µM]	GI50 [8] [µM]	GI50 [9] [µM]	GI50 [10] [µM]
CCc1nc2cc3cccnc3c(Cl)c2[nH]c1=O	> 100	> 100	> 100	> 100	> 100	> 100	> 100	> 100	> 100	91.1										
CC1C(c2ccc3c(c2)OCO3)c2cc3c(cc2OC1N1CCOCC1)OCO3 (stereo not drawn)	81.7	> 100	> 93.7	94.2	> 100	61.6	> 100	> 93	> 100	51.9										
COC(=O)C1=C(C)NC(C)=C([N+](=O)[O-])C1c1cccc(N=O)c1 (stereo not drawn)	63.4	25.4	29.1	26.4	37.3	> 100	30.7	51.5	25.1	27.6										
COc1cc2c(cc1OC)C13CC[N+]4(C)CC5=CCOC6CC(=O)N2C1C6C5CC34[O-] (stereo not drawn)	> 100	> 100	> 100	> 100	> 100	> 100	> 100	> 100	> 100	> 100										
COc1ccc(-c2csc(NC(=O)CSc3nc(C)c(-c4ccccc4)n3Nc3ccccc3)n2)cc1	> 100	> 100	> 100	> 100	7.49	> 100	> 100	> 100	> 100	> 100	> 100	2.82	8.93	> 100	6.9	5.71	6.74	0.566	> 100	> 100
CCOC(=O)C1(C(=O)OCC)CCCN1C(=O)[C@H](CNC(=O)OC(C)(C)C)NC(=O)OCc1ccccc1	> 100	> 100	> 100	> 100	> 100	> 100	> 100	> 100	> 100	> 100										
COc1ccc2c(c1)CCN=C2c1ccccc1CCCCl	> 100	> 100	74.1	> 100	> 100	11.8	> 100	> 100	> 100	82.1										
C=C1C(=O)OC2/C=C(/C)C3(O)OC(C)(CC(OC(=O)C(C)C)C12)CC3OC(C)=O (stereo not drawn)	> 87	24.4	24.5	41	> 100	> 100	22.3	56.5	68	6.82										
O=C(O)c1ccc2c(c1)CC1(C2)Cc2cc3c(cc2C1=O)CCC3 (stereo not drawn)	> 100	> 100	> 100	> 100	> 100	> 100	> 100	> 100	> 100	> 100										
Cc1ccc(S(=O)(=O)NC(=O)NNc2ccc(F)cc2)cc1	> 100	> 100	> 100	> 100	> 100	> 58.2	> 31.6	> 100	> 100	> 100										
CCOC(=O)C(C)c1nc2c(Cl)c3ncccc3cc2[nH]c1=O (stereo not drawn)	> 100	> 100	> 100	> 100	> 100	> 100	> 100	> 100	> 100	> 100										
COC(=O)C1(Cc2ccc3c(c2)CCC3)Cc2cc3c(cc2C1)CCC3	> 100	> 100	> 100	> 100	60.7	> 100	> 100	> 100	62.2	68.8										
COc1ccc(N=C2C(=S)N(c3ccc(OC)cc3)/C(=N/S(=O)(=O)c3ccccc3)N2c2ccccc2)cc1	38.7	28.3	23.5	34.6	7.6	> 100	11.2	> 49.5	26.6	16										
CCCCC/C(C=O)=C\c1ccccc1	> 100	> 100	> 100	> 100	> 100	> 100	> 100	> 100	> 100	> 100										
Cn1ccnc1Sc1ccc(C=Nc2ccc3nc(SCC(=O)NC4CCCCC4)sc3c2)cc1[N+](=O)[O-]	> 100	32.2	> 100	> 100	> 100	> 100	46.8	44.4	> 100	23.4										
COc1cc(C=C2C(=O)NC(=S)NC2=O)cc(OC)c1OC	> 100	> 100	> 100	> 100	> 100	> 100	> 100	> 100	> 100	> 100										
Clc1ccc(Cl)c(SCCCN2CCNCC2)c1	43.4	31.4	40.7	86.1	58.1	48.6	33.6	37.1	26.5	32.4										
